Among the data in patent US10053468B2, “Heterocyclic compound” (TAKEDA PHARMACEUTICAL COMPANY LIMITED, priority 2013, dated 2018) are inhibition values, retold here.

Where two headings read alike, the source gives them in different places.

Assay [1] deals with T1, RORγt (Homo sapiens, UniProt P51449).
T1 sequence (P51449 1-497 isoform P51449-2): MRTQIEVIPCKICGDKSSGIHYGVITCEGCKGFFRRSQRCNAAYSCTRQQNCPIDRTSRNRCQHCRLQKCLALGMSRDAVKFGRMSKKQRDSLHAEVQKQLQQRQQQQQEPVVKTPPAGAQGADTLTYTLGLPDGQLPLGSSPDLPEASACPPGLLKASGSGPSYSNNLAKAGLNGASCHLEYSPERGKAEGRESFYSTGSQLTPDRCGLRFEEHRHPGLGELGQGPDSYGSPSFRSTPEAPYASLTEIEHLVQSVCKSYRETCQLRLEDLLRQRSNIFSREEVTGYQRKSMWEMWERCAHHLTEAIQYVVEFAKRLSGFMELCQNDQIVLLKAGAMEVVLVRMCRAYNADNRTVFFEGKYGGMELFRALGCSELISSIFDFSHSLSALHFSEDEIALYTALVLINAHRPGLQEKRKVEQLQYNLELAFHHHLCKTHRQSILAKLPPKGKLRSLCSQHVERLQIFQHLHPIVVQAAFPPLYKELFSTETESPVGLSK
The assay is described as follows: Cofactor recruitment test (Alpha Screen, biotinylated SRC-1 peptide). In kind it is biochemical. Particulars: read-out: Signal value inhibitory rate at test compound 1 μM (%). On the procedure: Cofactor Recruitment Test
Cofactor recruitment test was performed by Alpha Screen (Histidine Detection Kit, PerkinElmer) method. First, a test compound was diluted with an assay buffer (50 mM Tris-HCl (pH 7.5), 50 mM KCl, 1 mM DTT, 0.1% BSA) and added to a 384 well plate by 5 μL. […] The mixture was stood in a dark place for 1 hr, and the signal value was measured by Envision (PerkinElmer).

Assay [2] has as its target T1, RORγt. The assay is described as follows: RORγt binding test using fluorescent-labeled cholesterol (TR-FRET). The note with it: read-out: Binding inhibitory rate of fluorescent-labeled cholesterol to RORγt at test compound 1 μM (%). The gist of the method: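 After 20 min at room temperature with His-tagged RORγt and BODIPY-cholesterol in pH 7.5 Tris buffer (NaCl, DTT, BSA), compound wells got terbium anti-His antibody for another 20 min. Time-resolved FRET was read with excitation 320 nm, emission 520 nm and a 100 µs delay.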

The target of assay [3] is T1, RORγt. The assay is described as follows: Jurkat reporter test (human IL-17 ROR response element luciferase, RORγt vector). In kind it is cell-based. Particulars: read-out: Luminescence level inhibitory rate at test compound 3 μM (%). An outline of the steps:
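Luminescence (Bright-Glo, 10 min, RT) was measured after overnight compound treatment of electroporated Jurkat cells (1350 V, 10 ms interval, 3 pulses). The reaction medium was RPMI with 10% lipid-reduced FCS, 10 mM HEPES (pH 7.5) and 5 μM lovastatin.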

For assay [4], the target named is T1, RORγt. The assay is described as follows: RORγt binding test using fluorescent-labeled synthetic ligand (TR-FRET). Particulars: read-out: Binding inhibitory rate of fluorescent-labeled synthetic ligand to RORγt at test compound 1 μM (%). The protocol: RORγt Binding Test Using Fluorescent-labeled Synthetic Ligand
The binding activity of the test compound to RORγt was measured by a time resolved fluorescence resonance energy transfer method (TR-FRET) utilizing histidine-tagged RORγt, fluorescent-labeled synthetic ligand, and terbium-labeled anti-histidine tag antibody (Invitrogen). First, a test compound diluted with an assay buffer (20 mM Tris-HCl (pH 7.5), 100 mM NaCl, 1 mM DTT, 0.1% BSA) was added to a 384 well plate by 3 μL. Then, RORγt diluted with an assay buffer to 240 nM was added by 3 μL, after which fluorescent-labeled synthetic ligand diluted with the assay buffer to 12 μM was added by 3 μL, and the mixture was stood at room temperature for 20 min. Thereafter, a terbium-labeled anti-histidine tag antibody diluted with the assay buffer to 8 nM was added by 3 μL. The mixture was stood at room temperature for 20 min, and fluorescence intensity (excitation wavelength 320 nm, fluorescence wavelength 520 nm, delay time 100 microseconds) was measured by Envision (PerkinElmer).

The mark [5] stands for this setting: test compound 3 μM, Jurkat cells.

Regarding `CCOc1ccc2c(c1)CCN(C(=O)Cc1cc(O)no1)[C@H]2C(=O)Nc1ccc(C(C)(C)C)c(F)c1` [Example 67, (1R)-N-(4-tert-butyl-3-fluorophenyl)-6-ethoxy-2-((3-hydroxy-1,2-oxazol-5-yl)acetyl)-1,2,3,4-tetrahydroisoquinoline-1-carboxamide], the inhibition at 1 µM turned out to be 87% on RORγt [1], 103% at RORγt [2] and 102% at RORγt [4]. Also, on RORγt [3] (setting [5]), the inhibition at 3 µM was 100%.

In the case of `COc1ccc2c(c1)CCN(C(=O)c1cc(O)no1)[C@H]2C(=O)Nc1ccc([Si](C)(C)C)c(F)c1` [Example 7, (1R)-N-(3-fluoro-4-(trimethylsilyl)phenyl)-2-((3-hydroxy-1,2-oxazol-5-yl)carbonyl)-6-methoxy-1,2,3,4-tetrahydroisoquinoline-1-carboxamide], the inhibition at 1 µM on RORγt [1] was found to be 92.8%; on RORγt [2] it was 102%; at RORγt [4] it was 101%. The inhibition at 3 µM at RORγt [3] (Jurkat) was determined as 101%.

Consider `COc1ccc2c(c1)CCN(C(=O)Cc1cc(O)no1)[C@H]2C(=O)Nc1cc(F)c2c(c1)CCC2(C)C` [Example 45, (1R)-N-(7-fluoro-1,1-dimethyl-2,3-dihydro-1H-inden-5-yl)-2-((3-hydroxy-1,2-oxazol-5-yl)acetyl)-6-methoxy-1,2,3,4-tetrahydroisoquinoline-1-carboxamide], for which the values for the inhibition at 1 µM on RORγt [1], at RORγt [2] and at RORγt [4] were 76.9%, 103% and 102%, respectively. Besides, the inhibition at 3 µM on RORγt [3] (setting [5]) turned out to be 99.6%.

Consider `COc1ccc2c(c1)CCN(C(=O)c1cc(O)no1)[C@H]2C(=O)Nc1ccc(C(C)(C)COCC(F)F)c(F)c1` [Example 75, (1R)-N-(4-(1-(2,2-difluoroethoxy)-2-methylpropan-2-yl)-3-fluorophenyl)-2-((3-hydroxy-1,2-oxazol-5-yl)carbonyl)-6-methoxy-1,2,3,4-tetrahydroisoquinoline-1-carboxamide], for which the inhibition at 1 µM at RORγt [1] was found to be 78%; on RORγt [2], 101%; on RORγt [4], 102%. The inhibition at 3 µM on RORγt [3] (setting [5]) is 96%.

Turning to `COc1ccc2c(c1)CCN(C(=O)[C@H]1CNC(=O)C1)[C@H]2C(=O)Nc1ccc(C(C)(C)C)c(F)c1` [Example 26, (1R)-N-(4-tert-butyl-3-fluorophenyl)-6-methoxy-2-(((3R)-5-oxopyrrolidin-3-yl)carbonyl)-1,2,3,4-tetrahydroisoquinoline-1-carboxamide], the inhibition at 1 µM on RORγt [1] is 81.5%; on RORγt [2] it was 97.7%; at RORγt [4] it was 101%. The inhibition at 3 µM at RORγt [3] (setting [5]) amounted to 102%.

For the molecule `CCOCC(C)(C)c1c(F)cc(NC(=O)[C@H]2c3ccc(OCC)cc3CCN2C(=O)CCCC(=O)O)cc1F` [Example 166, 5-((1R)-6-ethoxy-1-((4-(1-ethoxy-2-methylpropan-2-yl)-3,5-difluorophenyl)carbamoyl)-3,4-dihydroisoquinolin-2(1H)-yl)-5-oxopentanoic acid], the inhibition at 1 µM was 86% on RORγt [1], 100% at RORγt [2] and 102% at RORγt [4]. The inhibition at 3 µM at RORγt [3] (setting [5]) was found to be 99%.

In the case of `CCOc1ccc2c(c1)CCN(C(=O)c1cc(O)no1)[C@H]2C(=O)Nc1cc(F)c(C(C)(C)COC)c(F)c1` [Example 163, (1R)-N-(3,5-difluoro-4-(1-methoxy-2-methylpropan-2-yl)phenyl)-6-ethoxy-2-((3-hydroxy-1,2-oxazol-5-yl)carbonyl)-1,2,3,4-tetrahydroisoquinoline-1-carboxamide], the values for the inhibition at 1 µM on RORγt [1], on RORγt [2] and on RORγt [4] were 97%, 100% and 102%, respectively. Besides, at RORγt [3] (setting [5]), the inhibition at 3 µM amounted to 101%.

For the molecule `COCc1ccc2c(c1)CCN(C(=O)Cc1cc(O)no1)[C@H]2C(=O)Nc1ccc([Si](C)(C)C)c(F)c1` [Example 101, (1R)-N-(3-fluoro-4-(trimethylsilyl)phenyl)-2-((3-hydroxy-1,2-oxazol-5-yl)acetyl)-6-(methoxymethyl)-1,2,3,4-tetrahydroisoquinoline-1-carboxamide], the inhibition at 1 µM on RORγt [1] came out at 99%; on RORγt [2], 102%; on RORγt [4], 102%. The inhibition at 3 µM on RORγt [3] (Jurkat) stood at 103%.

In the case of `CCOc1ccc2c(c1)CCN(C(=O)CCCC(=O)O)[C@H]2C(=O)Nc1cc(F)c(C(C)(C)COCC(F)F)c(F)c1` [Example 153, 5-((1R)-1-((4-(1-(2,2-difluoroethoxy)-2-methylpropan-2-yl)-3,5-difluorophenyl)carbamoyl)-6-ethoxy-3,4-dihydroisoquinolin-2 (1H)-yl)-5-oxopentanoic acid], the inhibition at 1 µM is 84% on RORγt [1], 100% at RORγt [2] and 102% at RORγt [4]. In addition, the inhibition at 3 µM at RORγt [3] (setting [5]) was 97%.

`CCOc1ccc2c(c1)CCN(C(=O)Cc1cc(O)no1)[C@H]2C(=O)Nc1cc(F)c(C(C)(C)COCC(F)F)c(F)c1` [Example 155, (1R)-N-(4-(1-(2,2-difluoroethoxy)-2-methylpropan-2-yl)-3,5-difluorophenyl)-6-ethoxy-2-((3-hydroxy-1,2-oxazol-5-yl)acetyl)-1,2,3,4-tetrahydroisoquinoline-1-carboxamide]: the inhibition at 1 µM on RORγt [1] was found to be 84%; at RORγt [2], 101%; at RORγt [4] it was 101%. Further, on RORγt [3] (setting [5]), the inhibition at 3 µM was found to be 99%.

With `COCc1ccc2c(c1)CCN(C(=O)CCCC(=O)O)[C@H]2C(=O)Nc1ccc([Si](C)(C)C)c(F)c1` [Example 110, 5-((1R)-1-((3-fluoro-4-(trimethylsilyl)phenyl)carbamoyl)-6-(methoxymethyl)-3,4-dihydroisoquinolin-2 (1H)-yl)-5-oxopentanoic acid], the inhibition at 1 µM at RORγt [1] was 100%; on RORγt [2], 102%; at RORγt [4], 102%. Besides, the inhibition at 3 µM on RORγt [3] (Jurkat) came to 103%.

As for `COc1ccc2c(n1)CCN(C(=O)Cc1cc(O)no1)[C@H]2C(=O)Nc1ccc([Si](C)(C)C)c(F)c1` [Example 80, (5R)-N-(3-fluoro-4-(trimethylsilyl)phenyl)-6-((3-hydroxy-1,2-oxazol-5-yl)acetyl)-2-methoxy-5,6,7,8-tetrahydro-1,6-naphthyridine-5-carboxamide], the figures for the inhibition at 1 µM on RORγt [1], at RORγt [2] and on RORγt [4] were 97%, 102% and 102%, respectively. At RORγt [3] (Jurkat), the inhibition at 3 µM is 100%.

In the case of `CC[Si](C)(C)c1c(F)cc(NC(=O)[C@H]2c3ccc(OC)nc3CCN2C(=O)CCCC(=O)O)cc1F` [Example 114, 5-((5R)-5-((4-(ethyl(dimethyl)silyl)-3,5-difluorophenyl)carbamoyl)-2-methoxy-7,8-dihydro-1,6-naphthyridin-6(5H)-yl)-5-oxopentanoic acid], the inhibition at 1 µM was determined as 98% at RORγt [1], 103% on RORγt [2] and 102% on RORγt [4]. Moreover, the inhibition at 3 µM at RORγt [3] (Jurkat) is 101%.

As for `COc1ccc2c(c1)CCN(C(=O)Cc1cc(O)no1)[C@H]2C(=O)Nc1ccc(C(C)(C)C)c(C#N)c1` [Example 65, (1R)-N-(4-tert-butyl-3-cyanophenyl)-2-((3-hydroxy-1,2-oxazol-5-yl)acetyl)-6-methoxy-1,2,3,4-tetrahydroisoquinoline-1-carboxamide], the inhibition at 1 µM turned out to be 98% at RORγt [1], 102% at RORγt [2] and 101% on RORγt [4]. For the same molecule, the inhibition at 3 µM on RORγt [3] (setting [5]) came to 100%.
